The values that follow are results of earlier work, collected in patent US20030087843A1, “O-pyrazole glucoside SGLT2 inhibitors and method of use” (priority 2001, published 2003).

A word on the Km: it is the substrate concentration at which the rate is half of its maximum.

In series [1] the target is T1, human SGLT1 (Homo sapiens, UniProt P13866).
T1 sequence (P13866 1-664): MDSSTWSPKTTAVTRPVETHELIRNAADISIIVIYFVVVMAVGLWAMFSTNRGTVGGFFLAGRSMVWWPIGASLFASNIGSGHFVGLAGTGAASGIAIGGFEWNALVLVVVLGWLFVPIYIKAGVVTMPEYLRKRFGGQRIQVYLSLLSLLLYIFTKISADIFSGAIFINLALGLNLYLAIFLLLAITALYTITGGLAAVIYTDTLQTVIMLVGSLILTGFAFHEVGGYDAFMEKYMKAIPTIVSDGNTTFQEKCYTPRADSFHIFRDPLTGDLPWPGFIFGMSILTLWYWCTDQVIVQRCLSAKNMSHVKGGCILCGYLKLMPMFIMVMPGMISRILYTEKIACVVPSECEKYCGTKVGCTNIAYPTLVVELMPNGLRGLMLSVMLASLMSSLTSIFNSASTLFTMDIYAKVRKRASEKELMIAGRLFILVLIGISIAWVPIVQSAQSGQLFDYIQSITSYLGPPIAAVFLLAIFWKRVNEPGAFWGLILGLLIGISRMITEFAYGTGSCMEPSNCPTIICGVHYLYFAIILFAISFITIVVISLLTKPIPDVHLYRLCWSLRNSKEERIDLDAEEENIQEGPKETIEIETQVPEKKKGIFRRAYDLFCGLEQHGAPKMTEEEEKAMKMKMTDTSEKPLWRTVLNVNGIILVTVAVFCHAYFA
As to conditions: read-out: Km for uptake of AMG.

Series [2] concerns the target T2, human SGLT2 (Homo sapiens, UniProt P31639).
T2 sequence (P31639 1-672): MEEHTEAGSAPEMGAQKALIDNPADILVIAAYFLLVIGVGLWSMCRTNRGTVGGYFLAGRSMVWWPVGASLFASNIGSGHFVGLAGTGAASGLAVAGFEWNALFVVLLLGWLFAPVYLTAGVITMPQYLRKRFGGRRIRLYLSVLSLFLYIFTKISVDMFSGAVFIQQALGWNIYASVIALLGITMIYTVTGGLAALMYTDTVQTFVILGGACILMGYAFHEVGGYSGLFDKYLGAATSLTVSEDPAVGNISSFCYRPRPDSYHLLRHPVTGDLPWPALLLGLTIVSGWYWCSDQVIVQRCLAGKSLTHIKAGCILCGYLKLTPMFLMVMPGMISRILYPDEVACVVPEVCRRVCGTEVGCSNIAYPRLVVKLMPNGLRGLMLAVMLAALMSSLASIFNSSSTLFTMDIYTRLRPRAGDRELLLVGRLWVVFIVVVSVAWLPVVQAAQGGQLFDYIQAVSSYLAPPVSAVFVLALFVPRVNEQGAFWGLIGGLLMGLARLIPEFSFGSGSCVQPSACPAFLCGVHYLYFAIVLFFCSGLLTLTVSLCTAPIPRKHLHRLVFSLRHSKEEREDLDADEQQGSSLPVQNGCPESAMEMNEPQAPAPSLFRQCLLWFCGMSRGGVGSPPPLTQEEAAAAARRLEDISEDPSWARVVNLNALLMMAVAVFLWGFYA
As to conditions: read-out: Km for uptake of AMG.

The subject of series [3] is facilitative glucose transporters (GLUTs).
For series [4] the following is noted: oral.
For series [5] the following is noted: normal animals, despite the presence of glycosuria.
Series [6] concerns SGLT2 activity.
Where [7] appears, read: diabetic rodent models and one canine diabetes model.

Turning to `CO[C@H]1O[C@H](CO)[C@@H](O)[C@H](O)[C@H]1O` [AMG, α-methyl-D-glucopyranoside], the Michaelis constant (Km) was 400 µM in series [1] and 1.6 mM in series [2].
Turning to `O=C(CCc1ccc(O)cc1)c1c(O)cc(O)cc1O` [phloretin], in series [3], the “inhibition of facilitated glucose transport” value is on record as “potent inhibitor”.
Turning to `O=C(CCc1ccc(O)cc1)c1c(O)cc(O)cc1O[C@@H]1O[C@H](CO)[C@@H](O)[C@H](O)[C@H]1O` [phlorizin], in series [4], the “hydrolysis in the gut” value is reported as “hydrolyzed in the gut to its aglycone phloretin”. The “hypoglycemic or other adverse effects” value in series [5] is reported as “no hypoglycemic or other adverse effects”. In series [6] (setting [7]), the “fasting and fed plasma glucose” value is “lowering fasting and fed plasma glucose”; the glucose excretion entry was “promoting glucose excretion”; the hypoglycemic side effects entry was “without hypoglycemic side effects”. For the same compound, the “adverse effects on plasma ion balance, renal function or renal morphology” value in series [6] (treatment for as long as two weeks) is recorded as “No adverse effects”.
